Reference: PubChem BioAssay AID2060602 (Molecular Pharmacology Branch, DTP, NCI, 2025)
pIC50: −log10 of the molar value. Where “and” joins values, the source holds several entries; their conditions need not be identical. Identical values can stand only once. One block for each compound: values may come before it.

System: 648629-189-R-J1-PDC complex spheroids viability
Experiment: Anticancer human tumor 648629-189-R-J1-PDC patient-derived bladder carcinoma cell line growth inhibition [CLK]
Conditions: for viability, T/C: stronger effect = lower value
How it was run: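 Patient-derived tumor cells grown as complex spheroids with HUVEC endothelial cells and mesenchymal stem cells, treated with drug combinations. Concentrations descend in half-log steps from near clinical Cmax, or from 10 microM if Cmax unknown.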

[1] = curve of first compound, second compound 0.0316 µM
[2] = curve of first compound, second compound 0.1 µM
[3] = curve of first compound, second compound 0.316 µM
[4] = curve of first compound, second compound 1 µM
[5] = curve of first compound, second compound 3.16 µM
[6] = curve of first compound, second compound 10 µM
[7] = second compound 0.0316 µM, first compound 0.0316 µM
[8] = second compound 0.0316 µM, first compound 0.1 µM
[9] = second compound 0.0316 µM, first compound 0.316 µM
[10] = second compound 0.0316 µM, first compound 1 µM
[11] = second compound 0.0316 µM, first compound 3.16 µM
[12] = second compound 0.0316 µM, first compound 10 µM
[13] = second compound 0.1 µM, first compound 0.0316 µM
[14] = second compound 0.1 µM, first compound 0.1 µM
[15] = second compound 0.1 µM, first compound 0.316 µM
[16] = second compound 0.1 µM, first compound 1 µM
[17] = second compound 0.1 µM, first compound 3.16 µM
[18] = second compound 0.1 µM, first compound 10 µM
[19] = second compound 0.316 µM, first compound 0.0316 µM
[20] = second compound 0.316 µM, first compound 0.1 µM
[21] = second compound 0.316 µM, first compound 0.316 µM
[22] = second compound 0.316 µM, first compound 1 µM
[23] = second compound 0.316 µM, first compound 3.16 µM
[24] = second compound 0.316 µM, first compound 10 µM
[25] = second compound 1 µM, first compound 0.0316 µM
[26] = second compound 1 µM, first compound 0.1 µM
[27] = second compound 1 µM, first compound 0.316 µM
[28] = second compound 1 µM, first compound 1 µM
[29] = second compound 1 µM, first compound 3.16 µM
[30] = second compound 1 µM, first compound 10 µM
[31] = second compound 3.16 µM, first compound 0.0316 µM
[32] = second compound 3.16 µM, first compound 0.1 µM
[33] = second compound 3.16 µM, first compound 0.316 µM
[34] = second compound 3.16 µM, first compound 1 µM
[35] = second compound 3.16 µM, first compound 3.16 µM
[36] = second compound 3.16 µM, first compound 10 µM
[37] = second compound 10 µM, first compound 0.0316 µM
[38] = second compound 10 µM, first compound 0.1 µM
[39] = second compound 10 µM, first compound 0.316 µM
[40] = second compound 10 µM, first compound 1 µM
[41] = second compound 10 µM, first compound 3.16 µM
[42] = second compound 10 µM, first compound 10 µM
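For viability, T/C in this document: drug exposure lasted seven days before viability readout; 100% = DMSO vehicle control wells.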

pIC50 [1]: 5.01
pIC50 [2]: 5.11
pIC50 [3]: > 7.50
pIC50 [4]: > 7.50
pIC50 [5]: > 7.50
pIC50 [6]: > 7.50
Compound: COc1ccc([C@@H](O)c2cc(-c3ncnc4cc(N5CCOCC5)ccc34)c(F)cc2Cl)nn1 + CNC(=O)c1ccc(Nc2nc(OC3CCCC3)c3c(-c4ccc5nc(C)oc5c4)c[nH]c3n2)c(OC)c1
viability, T/C [7]: 105%
viability, T/C [8]: 93%
viability, T/C [9]: 97%
viability, T/C [10]: 85.3%
viability, T/C [11]: 67.4%
viability, T/C [12]: 49.7%
viability, T/C [13]: 90.6%
viability, T/C [14]: 89.3%
viability, T/C [15]: 83.7%
viability, T/C [16]: 82%
viability, T/C [17]: 60.5%
viability, T/C [18]: 47%
viability, T/C [19]: 30.8%
viability, T/C [20]: 27%
viability, T/C [21]: 26.8%
viability, T/C [22]: 24.6%
viability, T/C [23]: 22.4%
viability, T/C [24]: 24.2%
viability, T/C [25]: 20.2%
viability, T/C [26]: 22.2%
viability, T/C [27]: 20.5%
viability, T/C [28]: 17.5%
viability, T/C [29]: 22.4%
viability, T/C [30]: 16%
viability, T/C [31]: 21.3%
viability, T/C [32]: 20.5%
viability, T/C [33]: 20.4%
viability, T/C [34]: 15%
viability, T/C [35]: 19.2%
viability, T/C [36]: 18.1%
viability, T/C [37]: 19.6%
viability, T/C [38]: 17.1%
viability, T/C [39]: 21.7%
viability, T/C [40]: 20.1%
viability, T/C [41]: 19.1%
viability, T/C [42]: 15.7%

IC50 (compound alone, run of 07/31/2023): 286 nM [middle of 11 runs]
Compound: CN1CCN(c2cc(C(=O)Nc3cc4cc(-c5cnn(C)c5)ccc4cn3)ccn2)CC1
viability, T/C (compound 0.0316 µM): 113% [middle of 12 runs]
viability, T/C (compound 0.1 µM): 105% [middle of 12 runs]
viability, T/C (compound 1 µM): 0.38% [middle of 11 runs]
viability, T/C (compound 3.16 µM): 0.16% [middle of 7 runs]
viability, T/C (compound 10 µM): 0.15% [middle of 7 runs]

Compound: COc1c(OCCCN2CCOCC2)ccc2c3n(c(=NC(=O)c4cnc(N)nc4)nc12)CCN3 + CN1CCN(c2cc(C(=O)Nc3cc4cc(-c5cnn(C)c5)ccc4cn3)ccn2)CC1
pIC50 [1]: 7.04
pIC50 [2]: 7.13
pIC50 [3]: > 8.50
pIC50 [4]: > 8.50
pIC50 [5]: > 8.50
pIC50 [6]: > 8.50
viability, T/C (second compound 0.0316 µM, first compound 0.00316 µM): 114%
viability, T/C (second compound 0.0316 µM, first compound 0.01 µM): 102%
viability, T/C [7]: 88.8%
viability, T/C [8]: 46.6%
viability, T/C [9]: 18.3%
viability, T/C [10]: 12.1%
viability, T/C (second compound 0.1 µM, first compound 0.00316 µM): 118%
viability, T/C (second compound 0.1 µM, first compound 0.01 µM): 101%
viability, T/C [13]: 72.4%
viability, T/C [14]: 43%
viability, T/C [15]: 18.3%
viability, T/C [16]: 10.7%
viability, T/C (second compound 0.316 µM, first compound 0.00316 µM): 45.6%
viability, T/C (second compound 0.316 µM, first compound 0.01 µM): 43.8%
viability, T/C [19]: 37.4%
viability, T/C [20]: 22.5%
viability, T/C [21]: 11%
viability, T/C [22]: 5.26%
viability, T/C (second compound 1 µM, first compound 0.00316 µM): 1.95%
viability, T/C (second compound 1 µM, first compound 0.01 µM): 0.55%
viability, T/C [25]: 0.91%
viability, T/C [26]: 0.76%
viability, T/C [27]: 0.14%
viability, T/C [28]: 0.11%
viability, T/C (second compound 3.16 µM, first compound 0.00316 µM): 0.14%
viability, T/C (second compound 3.16 µM, first compound 0.01 µM): 0.49%
viability, T/C [31]: 0.15%
viability, T/C [32]: 0.11%
viability, T/C [33]: 0.11%
viability, T/C [34]: 0.58%
viability, T/C (second compound 10 µM, first compound 0.00316 µM): 0.07%
viability, T/C (second compound 10 µM, first compound 0.01 µM): 0.14%
viability, T/C [37]: 0.42%
viability, T/C [38]: 0.17%
viability, T/C [39]: 1.19%
viability, T/C [40]: 1.16%

pIC50 (curve of compound): 7.23 and 7.26
Compound: NC(=O)C(=Cn1cnc(-c2cc(C(F)(F)F)cc(C(F)(F)F)c2)n1)c1cncnc1
viability, T/C (compound 0.00949 µM): 102% and 105%
viability, T/C (compound 0.03 µM): 86.1% and 84.8%
viability, T/C (compound 0.0949 µM): 24.7% and 19.3%
viability, T/C (compound 0.3 µM): 9.87% and 6.77%
viability, T/C (compound 0.949 µM): 3.5% and 4.03%
viability, T/C (compound 3 µM): 1.5% and 1.39%

pIC50 (curve of compound): 5.26 and 5.27
Compound: C=C(F)C(=O)N1CCN(c2nc(OCC3CCCN3C)nc3c2CCN(c2cccc4cccc(Cl)c24)C3)CC1CC#N (stereo not drawn)
viability, T/C (compound 0.0316 µM): 103% and 97.9%
viability, T/C (compound 0.1 µM): 97.9% and 98.3%
viability, T/C (compound 0.316 µM): 101% and 99%
viability, T/C (compound 1 µM): 87.8% and 95.9%
viability, T/C (compound 3.16 µM): 98% and 93.7%
viability, T/C (compound 10 µM): 0.23% and 0.2%

Compound: COc1ccc([C@@H](O)c2cc(-c3ncnc4cc(N5CCOCC5)ccc34)c(F)cc2Cl)nn1 + CN1CCN(c2cc(C(=O)Nc3cc4cc(-c5cnn(C)c5)ccc4cn3)ccn2)CC1
pIC50 [1]: 5.11
pIC50 [2]: 5.09
pIC50 [3]: > 7.50
pIC50 [4]: > 7.50
pIC50 [5]: > 7.50
pIC50 [6]: > 7.50
viability, T/C [7]: 122%
viability, T/C [8]: 107%
viability, T/C [9]: 101%
viability, T/C [10]: 95.2%
viability, T/C [11]: 80%
viability, T/C [12]: 41.2%
viability, T/C [13]: 98%
viability, T/C [14]: 89%
viability, T/C [15]: 102%
viability, T/C [16]: 88.9%
viability, T/C [17]: 80.3%
viability, T/C [18]: 43.4%
viability, T/C [19]: 23%
viability, T/C [20]: 26%
viability, T/C [21]: 32.9%
viability, T/C [22]: 29.2%
viability, T/C [23]: 26.8%
viability, T/C [24]: 19.9%
viability, T/C [25]: 0.13%
viability, T/C [26]: 0.23%
viability, T/C [27]: 0.79%
viability, T/C [28]: 0.13%
viability, T/C [29]: 0.57%
viability, T/C [30]: 0.16%
viability, T/C [31]: 0.06%
viability, T/C [32]: 0.6%
viability, T/C [33]: 0.1%
viability, T/C [34]: 0.08%
viability, T/C [35]: 0.27%
viability, T/C [36]: 1.67%
viability, T/C [37]: 0.07%
viability, T/C [38]: 0.13%
viability, T/C [39]: 0.14%
viability, T/C [40]: 0.13%
viability, T/C [41]: 0.92%
viability, T/C [42]: 0.65%

pIC50 (curve of compound): 7.11 and 7.12
Compound: COc1c(OCCCN2CCOCC2)ccc2c3n(c(=NC(=O)c4cnc(N)nc4)nc12)CCN3
viability, T/C (compound 0.00316 µM): 115% and 94.4%
viability, T/C (compound 0.01 µM): 90.3% and 90.5%
viability, T/C (compound 0.0316 µM): 74.8% and 77.7%
viability, T/C (compound 0.1 µM): 46% and 41.9%
viability, T/C (compound 0.316 µM): 16.8% and 13.3%
viability, T/C (compound 1 µM): 7.93% and 6.55%
